Where “and” joins values, the source holds several entries; their conditions need not be identical. Equal values may be shown once.
Experiments:
[1] = molecular target: T1, GST-CREB / HA-P300 interaction (Homo sapiens, UniProt P16220); assay: GST-CREB pull-down of HA-P300 from HEK293T lysate; format: biochemical; details: APC 10 μM
T1 construct: made in house; host or cells: GST-CREB beads (pGEX5X-1); HA-P300 expressed in HEK293T cells
Experimental: (§1) 1 Supplementary Figure 2.
(§2) 2 a) Immunoblot of HA-P300 recovered from HEK293T cell lysate using GST-CREB beads. APC
(§3) 3 (10 μM) was incubated with cells for 1-h before FKS (10 nM) stimulation and was included in the
(§4) 4 following pull-down mixtures (n=3). One of two independent experiments presented here.
(§5) 5 b) Immunoblot for recovered GFP-CRTC1 or (c) GFP-CRTC3 immunoprecipitated by MYC-CREB
(§6) 6 from overexpression HEK293T cell line. APC (10 μM) was incubated with cells for 1-h before FKS
(§7) 7 (10 nM) stimulation and was included in the following pull-down mixtures. One of two independent
(§8) 8 experiments presented here.
(§9) 9 d) SPR sonogram traces of APC binding with HIS-CREB proteins immobilized to NTA-chip. The
(§10) 10 concentration series of APC was as indicated.
(§11) 11 e) SPR sonogram traces of APC flowing through HIS-CRTC2-S171A proteins immobilized on
(§12) 12 NTA-chip. The concentration of APC was as indicated.
(§13) 13 f) The luciferase enzymatic activity of HEK293T incubated with APC. Cells over-expressed
(§14) 14 luciferase CRE-Luc reporter and were stimulated by FSK (10 nM) for 5-h before lysis, which was
(§15) 15 then incubated with APC (concentration indicated) for 30 min before luciferase activity determination
(§16) 16 (n=3 per treatment). Data are represented as mean ± SEM. *, p < 0.05; **, p < 0.01; p values were
(§17) 17 determined by one-way ANOVA followed Dunnett’s multiple comparisons test. […]

CREB / CRTC1 interaction = molecular target: T2, CREB / CRTC1 interaction (Homo sapiens, UniProt P16220); assay: Co-immunoprecipitation of GFP-CRTC1 by MYC-CREB, HEK293T; format: cell-based; details: overexpression HEK293T cells, APC 10 μM
T2 construct: expressed in transfected cells; host or cells: HEK293T
T2 sequence (P16220 whole entry): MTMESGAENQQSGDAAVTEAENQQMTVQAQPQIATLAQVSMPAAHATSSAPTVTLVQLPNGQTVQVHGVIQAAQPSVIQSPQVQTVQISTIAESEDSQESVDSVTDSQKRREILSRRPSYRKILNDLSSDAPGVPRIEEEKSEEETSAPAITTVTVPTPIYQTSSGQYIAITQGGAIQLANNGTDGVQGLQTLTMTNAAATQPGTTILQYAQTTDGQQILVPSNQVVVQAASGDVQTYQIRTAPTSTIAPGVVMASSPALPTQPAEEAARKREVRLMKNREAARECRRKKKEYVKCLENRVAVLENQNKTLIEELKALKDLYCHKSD
Experimental: as §1, §2, §3, §4, §5, §6, §7, §8, §9, §10, §11, §12, §13, §14, §15, §16, §17

primary hepatocytes = assay: Glucose production assay; format: cell-based, mouse
Experimental: Primary hepatocytes were exposed to propolis, APC or vehicle control for 1-h prior to 4-h stimulation with glucagon, and then incubated in no-glucose no-phenol-red DMEM (Sigma) supplied with 2 mM sodium pyruvate (Sigma) and 10 mM sodium lactate (Sigma) for 8-h. Glucose levels in the media were detected using a GO kit (Sigma).

[2] = Body weight and body composition (living NMR) of mice; format: in vivo, mouse; set-up: AUC of body weight curve, group mean / fat mass of DIO, group mean / Total Area (AUC of body weight curve): unit not given here; details: for Total Area (AUC of body weight curve) / Body weight, column mean (main column effect) / AUC of body weight curve, group mean / Body weight (BW) / Fat/lean ratio / fat mass of DIO / Fat/lean ratio, group mean / fat mass of DIO, group mean: DIO mice; for Total Area (AUC of body weight curve) / Fat/lean ratio / fat mass of DIO: individual animals; for Body weight, column mean (main column effect): mean over 5 weeks, N=45, in g (unit assumed); for AUC of body weight curve, group mean: n=9; for Fat/lean ratio, group mean / fat mass of DIO, group mean: n=8
Experimental: All animal experiments were performed according to procedures approved by the Shanghai Institutes for Biological Sciences (SIBS) Animal Care and Use Committee. The db/db mice (stock NO. 000642 C57BL/6J, JACKSON) were purchased from the Jackson laboratory. The 8–10-week-old wild-type C57BL/6 and ICR/JCL mice were purchased from the Shanghai Laboratory Animal Center. Mice were housed in the animal facility at SIBS, in which mice were maintained on a 12-h light/12-h dark cycle for at least 2 weeks before the study and had free access to water and a regular diet (12% fat). For high-fat-induced obesity mice (DIO), high-fat diet (60% fat, Research Diets) was fed to wild-type mice for at least 13–15 weeks and glucose-tolerance tests were performed to confirm the development of diabetes in these mice. After being euthanized, samples were collected. Unless specified, male mice were used for these experiments.
Under the condition of non-anesthesia and non-invasion, the composition of fat and lean in live mice was analyzed by nuclear magnetic resonance (NMR, The Minispec, Bruker) according to the operational manual.

[3] = DIO and db/db mice, i.p. 10 or 20 mg/kg

T1 sequence (P16220 whole entry): as above
T1 sequence (B2RWS6 whole entry partner): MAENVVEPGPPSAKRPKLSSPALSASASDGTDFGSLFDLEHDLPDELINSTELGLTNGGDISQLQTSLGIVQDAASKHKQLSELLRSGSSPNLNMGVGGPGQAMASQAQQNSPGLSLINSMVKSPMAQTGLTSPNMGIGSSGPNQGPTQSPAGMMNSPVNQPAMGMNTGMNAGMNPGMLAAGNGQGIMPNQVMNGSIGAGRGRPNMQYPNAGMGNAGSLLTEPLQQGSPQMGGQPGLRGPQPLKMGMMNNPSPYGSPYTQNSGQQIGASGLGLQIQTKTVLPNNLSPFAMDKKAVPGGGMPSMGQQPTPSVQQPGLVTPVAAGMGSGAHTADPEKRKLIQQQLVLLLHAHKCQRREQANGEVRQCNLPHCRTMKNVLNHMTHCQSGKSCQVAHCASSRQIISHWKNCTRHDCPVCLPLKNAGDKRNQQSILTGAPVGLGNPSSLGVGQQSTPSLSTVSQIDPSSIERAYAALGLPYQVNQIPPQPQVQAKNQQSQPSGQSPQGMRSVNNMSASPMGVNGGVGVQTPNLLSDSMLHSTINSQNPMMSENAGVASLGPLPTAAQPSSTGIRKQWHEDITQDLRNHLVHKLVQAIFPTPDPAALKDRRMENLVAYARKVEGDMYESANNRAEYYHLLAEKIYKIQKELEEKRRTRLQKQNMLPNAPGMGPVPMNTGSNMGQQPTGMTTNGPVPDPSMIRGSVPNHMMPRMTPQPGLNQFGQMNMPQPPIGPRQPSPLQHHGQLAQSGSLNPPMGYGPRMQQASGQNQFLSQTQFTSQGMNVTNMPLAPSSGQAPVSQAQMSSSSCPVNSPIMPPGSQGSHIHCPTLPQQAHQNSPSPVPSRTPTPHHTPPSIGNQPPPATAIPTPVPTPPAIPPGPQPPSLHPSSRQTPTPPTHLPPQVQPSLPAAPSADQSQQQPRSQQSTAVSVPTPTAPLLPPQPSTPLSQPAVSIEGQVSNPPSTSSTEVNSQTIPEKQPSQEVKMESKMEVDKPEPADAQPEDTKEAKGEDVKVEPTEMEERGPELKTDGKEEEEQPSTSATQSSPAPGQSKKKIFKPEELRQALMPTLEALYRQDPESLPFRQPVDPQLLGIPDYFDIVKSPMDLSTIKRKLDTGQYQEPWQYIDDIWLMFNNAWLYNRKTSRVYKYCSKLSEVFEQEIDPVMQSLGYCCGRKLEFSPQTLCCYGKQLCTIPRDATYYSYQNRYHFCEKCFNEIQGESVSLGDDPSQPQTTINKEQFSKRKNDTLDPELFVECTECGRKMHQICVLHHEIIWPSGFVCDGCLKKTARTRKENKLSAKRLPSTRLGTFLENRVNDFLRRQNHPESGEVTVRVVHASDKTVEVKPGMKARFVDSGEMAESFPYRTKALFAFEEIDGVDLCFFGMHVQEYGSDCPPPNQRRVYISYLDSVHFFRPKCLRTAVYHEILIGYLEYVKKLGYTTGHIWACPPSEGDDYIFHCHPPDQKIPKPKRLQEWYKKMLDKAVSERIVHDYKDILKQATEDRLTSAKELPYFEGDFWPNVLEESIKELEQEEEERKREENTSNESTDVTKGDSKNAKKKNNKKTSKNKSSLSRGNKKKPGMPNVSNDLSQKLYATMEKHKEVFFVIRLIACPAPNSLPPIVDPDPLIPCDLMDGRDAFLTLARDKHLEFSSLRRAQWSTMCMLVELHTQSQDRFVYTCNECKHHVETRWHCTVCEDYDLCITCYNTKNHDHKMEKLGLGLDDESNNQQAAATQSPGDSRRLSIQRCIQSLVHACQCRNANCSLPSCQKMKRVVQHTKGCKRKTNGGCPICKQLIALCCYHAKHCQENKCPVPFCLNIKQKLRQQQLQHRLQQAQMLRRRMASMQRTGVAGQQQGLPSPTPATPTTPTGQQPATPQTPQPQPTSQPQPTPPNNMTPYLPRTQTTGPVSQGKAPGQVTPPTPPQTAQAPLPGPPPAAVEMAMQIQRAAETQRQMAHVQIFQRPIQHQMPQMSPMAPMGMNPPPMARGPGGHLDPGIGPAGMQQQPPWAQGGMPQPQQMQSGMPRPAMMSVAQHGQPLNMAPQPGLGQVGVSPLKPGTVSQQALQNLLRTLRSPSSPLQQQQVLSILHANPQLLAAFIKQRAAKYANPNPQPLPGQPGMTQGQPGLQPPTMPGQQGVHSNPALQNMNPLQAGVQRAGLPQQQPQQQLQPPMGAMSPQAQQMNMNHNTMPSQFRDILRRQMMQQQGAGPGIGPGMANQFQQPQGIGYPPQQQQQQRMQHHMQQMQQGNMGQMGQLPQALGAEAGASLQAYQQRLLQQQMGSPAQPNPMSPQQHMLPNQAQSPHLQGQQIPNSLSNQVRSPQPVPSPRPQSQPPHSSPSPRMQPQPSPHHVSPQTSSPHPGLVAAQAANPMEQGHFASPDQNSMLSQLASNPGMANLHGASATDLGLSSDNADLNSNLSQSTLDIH

With `CC(C)=CCc1cc(C=CC(=O)O)cc(CC=C(C)C)c1O` [APC, 3,5-diprenyl-4-hydroxycinnamic acid] as the compound, how does the “association of CREB with P300” value [1] read?
Its value is “little effect”.

What about the “interaction of CREB and CRTC1” value (CREB / CRTC1 interaction) of the same compound?
Its value is “attenuated”.

What about the “glucose output and Pgc-1α, Pck1 expression in CRTC2-null primary hepatocytes” value (primary hepatocytes; glucagon, APC 10 μM) of the same compound?
The value was “unable to further reduce”.

And the “glucose output induced by glucagon” value (primary hepatocytes; primary hepatocytes, APC 5 μM)?
The value was “reduced”.

What about the body weights [2, 3] of the same compound?
The body weights was “reduced”.

And the “fat mass and fat to lean ratio” value [2, 3]?
The value was “significant decrease”.

And the “Total Area (AUC of body weight curve)” value ([2]; APC 10 mg/kg ip)?
Its value is 120.1 and 149.9 and 145.1 and 147.4 and 144.1 and 156.2 and 141.9 and 151.1 and 155.2.

And the “Body weight, column mean (main column effect)” value ([2]; APC 10 mg/kg ip)?
Its value is 37.24.

What about the “AUC of body weight curve, group mean” value ([2]; APC 10 mg/kg ip) of the same compound?
The value was 145.7.

What about the “Body weight (BW)” value ([2]; APC 10 mg/kg ip, week 0, individual animals) of the same compound?
Its value is 35.8 g and 42.4 g and 44.2 g and 42.6 g and 43.4 g and 41.4 g and 42 g and 41.7 g and 47 g.

What about the “Body weight (BW)” value ([2]; APC 10 mg/kg ip, week 1, individual animals) of the same compound?
Its value is 29.5 g and 36.7 g (2×) and 37.7 g and 36.4 g and 42.9 g and 35.2 g and 34.9 g and 39.6 g.

And the “Body weight (BW)” value ([2]; APC 10 mg/kg ip, week 2, individual animals)?
Its value is 29.3 g and 36.8 g and 38.4 g and 36 g (2×) and 36.6 g and 42.8 g and 35.7 g and 39.9 g.

And the “Body weight (BW)” value ([2]; APC 10 mg/kg ip, week 3, individual animals)?
Its value is 29.3 g and 37.3 g and 38.5 g and 36.1 g and 35 g and 42.4 g and 35.3 g and 35.8 g and 39.5 g.

What about the “Body weight (BW)” value ([2]; APC 10 mg/kg ip, week 4, individual animals) of the same compound?
Its value is 29.7 g and 37.3 g and 38.4 g and 36.7 g and 33.7 g and 40.9 g and 33.3 g and 42 g and 37.2 g.

And the “Body weight (BW)” value ([2]; APC 10 mg/kg ip, week 5, individual animals)?
The value was 34.01 g and 40.28 g and 41.99 g and 40.47 g and 41.23 g and 39.33 g and 39.9 g and 39.615 g and 44.65 g.

And the Fat/lean ratio ([2]; APC 10 mg/kg)?
The Fat/lean ratio was 0.4757 and 0.5256 and 0.2029 and 0.4176 and 0.1933 and 0.2387 and 0.2853 and 0.2798.

And the “fat mass of DIO” value ([2]; APC 10 mg/kg)?
The value was 10.86 g and 11.25 g and 7.23 g and 10.98 g and 11.28 g and 7.03 g and 6.72 g and 7.86 g.

What about the “Fat/lean ratio, group mean” value ([2]; APC 10 mg/kg) of the same compound?
Its value is 0.3274.

What about the “fat mass of DIO, group mean” value ([2]; APC 10 mg/kg) of the same compound?
Its value is 9.151.

What about the “Total Area (AUC of body weight curve)” value ([2]; APC 20 mg/kg ip) of the same compound?
Its value is 123.1 and 131.4 and 141.8 and 135.4 and 152.5 and 146.9 and 147.6 and 154 and 138.7.

What about the “Body weight, column mean (main column effect)” value ([2]; APC 20 mg/kg ip) of the same compound?
Its value is 35.74.

And the “AUC of body weight curve, group mean” value ([2]; APC 20 mg/kg ip)?
The value was 141.3.

And the “Body weight (BW)” value ([2]; APC 20 mg/kg ip, week 0, individual animals)?
Its value is 36.3 g and 41.5 g and 43.7 g and 41.3 g (2×) and 48.2 g and 44.7 g and 46.6 g and 47.1 g.

And the “Body weight (BW)” value ([2]; APC 20 mg/kg ip, week 1, individual animals)?
Its value is 29.9 g and 34.9 g and 36.7 g and 33 g and 40.6 g and 37.6 g and 35.9 g and 38.6 g and 35.1 g.

And the “Body weight (BW)” value ([2]; APC 20 mg/kg ip, week 2, individual animals)?
The value was 30.2 g and 33.7 g (2×) and 35.8 g and 41.6 g and 38.4 g and 36.8 g and 39.6 g and 34.9 g.

What about the “Body weight (BW)” value ([2]; APC 20 mg/kg ip, week 3, individual animals) of the same compound?
The value was 30 g and 31.4 g and 35.1 g and 33.7 g and 41.2 g and 35.4 g and 36.3 g and 37.9 g and 34.4 g.

And the “Body weight (BW)” value ([2]; APC 20 mg/kg ip, week 4, individual animals)?
Its value is 30.5 g and 31.2 g and 34 g (2×) and 38.9 g and 31.3 g and 36.7 g and 37.2 g and 34.3 g.

And the “Body weight (BW)” value ([2]; APC 20 mg/kg ip, week 5, individual animals)?
The value was 30.855 g and 35.275 g and 37.145 g and 35.105 g (2×) and 40.97 g and 37.995 g and 39.61 g and 40.035 g.

And the Fat/lean ratio ([2]; APC 20 mg/kg)?
Its Fat/lean ratio is 0.1945 and 0.1916 and 0.1806 and 0.5498 and 0.1998 and 0.4126 and 0.3005 and 0.2177.

And the “fat mass of DIO” value ([2]; APC 20 mg/kg)?
The value was 8.13 g and 8.08 g and 9.26 g and 10.23 g and 9.91 g and 8.44 g and 10.75 g and 9.93 g.

And the “Fat/lean ratio, group mean” value ([2]; APC 20 mg/kg)?
The value was 0.2809.

What about the “fat mass of DIO, group mean” value ([2]; APC 20 mg/kg) of the same compound?
Its value is 9.341.

— publication PMC8752738, “A propolis-derived small molecule ameliorates metabolic syndrome in obese mice by targeting the CREB/CRTC2 transcriptional complex” (Nature Communications, 2022)
